Laboratory results taken from US20230330095A1, “PHARMACEUTICAL COMPOSITION FOR ANTI-CANCER COMPRISING NUPR1 ISOFORM A INHIBITOR” (SEOUL NATIONAL UNIVERSITY R&DB FOUNDATION, priority 2022, published 2023).
Values belong to the compound of their own block, whether it stands above or below them.

How the values were obtained:
GBM-37 [1] = test: cell viability after 3dc pre-treatment and temozolomide (anticancer adjuvant); assay type: cell-based, human
Method: To confirm whether 3dc, a NUPR1 isoform A inhibitor, may be applied as an anticancer adjuvant, brain tumor cell GBM-37 was treated with temozolomide (TMZ) and 3dc, and cell viability was confirmed.
GBM-37 was pre-treated with 50 nM, 100 nM, and 200 nM of 3dc for 24 hours, and then was treated with 250 μM, 500 μM, 1000 μM, 2000 μM, and 4000 μM of temozolomide, respectively, and cell viability was confirmed.

SNU80 = test: cell viability, thyroid cancer cells; assay type: cell-based; conditions: as treatment concentration of 3dc increased
Source text: (§1) For thyroid cancer cells, SNU80 and SNU790, as the treatment concentration of 3dc, a NUPR1 isoform A inhibitor, increased, cell viability decreased, confirming the anticancer efficacy of 3dc (FIG. 25).

SNU790 = test: cell viability, thyroid cancer cells; assay type: cell-based; conditions: as treatment concentration of 3dc increased
Source text: as §1

Caov3 = test: cell viability, ovary cancer cells; assay type: cell-based; conditions: as treatment concentration of 3dc increased
Source text: (§2) For ovary cancer cells, Caov3 and SKOV3, as the treatment concentration of 3dc, a NUPR1 isoform A inhibitor, increased, cell viability decreased, confirming the anticancer efficacy of 3dc (FIG. 30).

SKOV3 = test: cell viability, ovary cancer cells; assay type: cell-based; conditions: as treatment concentration of 3dc increased
Source text: as §2

HepG2 = test: cell viability, liver cancer cells; assay type: cell-based; conditions: as treatment concentration of 3dc increased
Source text: (§3) For liver cancer cells, HepG2 and Hep3B, as the treatment concentration of 3dc, a NUPR1 isoform A inhibitor, increased, cell viability decreased, confirming the anticancer efficacy of 3dc (FIG. 31).

Hep3B = test: cell viability, liver cancer cells; assay type: cell-based; conditions: as treatment concentration of 3dc increased
Source text: as §3

DU145 = test: cell viability, prostate cancer cells; assay type: cell-based; conditions: as treatment concentration of 3dc increased
Source text: (§4) For prostate cancer cells, DU145 and PC3, as the treatment concentration of 3dc, a NUPR1 isoform A inhibitor, increased, cell viability decreased, confirming the anticancer efficacy of 3dc (FIG. 21).

PC3 = test: cell viability, prostate cancer cells; assay type: cell-based; conditions: as treatment concentration of 3dc increased
Source text: as §4

GBM-28 [2] = test: cell viability with increasing 3dc concentration; assay type: cell-based, human; conditions: as treatment concentration of 3dc increased
Method: (§5) In order to confirm the anticancer efficacy of NUPR1 isoform A inhibitors in brain tumors, experiments were performed using brain tumor patient-derived cell lines obtained from primary glioblastoma patients (GBM-28) and secondary gliosarcoma patients (GBM-37).

GBM-37 [3] = test: cell viability with increasing 3dc concentration; assay type: cell-based, human; conditions: as treatment concentration of 3dc increased
Method: as §5

NUPR1 isoform A [4] = test: immunochemical analysis of nuclear transfer of NUPR1 isoform A; assay type: cell-based, human; conditions: GBM-37, immunochemical analysis
Method: as §5
First, through immunochemical analysis, it was confirmed that when GBM-37 was treated with 3dc, nuclear transfer of the NUPR1 isoform A was inhibited, as shown in FIG. 6.

GBM-28 [5] = test: cell proliferation analysis (MTS assay); assay type: cell-based, human
Method: as §5
(§6) In addition, after treating GBM-28 and GBM-37 with 3dc, cell proliferation analysis (MTS assay) was performed. As a result of treating GBM-28 and GBM-37 with 3dc, respectively, it was confirmed that cell proliferation was inhibited compared to the untreated control group, and compared to the control group overexpressing (OE) NUPR1 isoform A in GBM-28, in the case of i) treating 3dc, ii) transfecting the NUPR1 isoform A with siRNAs of SEQ ID NOs: 5 and 6 (siNUPR1a), and iii) transfecting 3dc-treated NUPR1 isoform A with siRNAs of SEQ ID NOs: 5 and 6, the cell proliferation was all inhibited. In addition, compared to the untreated control GBM-37, in the case of i) transfecting the NUPR1 isoform A with siRNAs of SEQ ID NOs: 5 and 6 and ii) transfecting 3dc-trated NUPR1 isoform A with siRNAs of SEQ ID NOs: 5 and 6, the cell proliferation was all inhibited, confirming that 3dc inhibited the proliferation ability of brain tumor cells expressing the NUPR1 isoform A (FIG. 11).

GBM-37 [6] = test: cell proliferation analysis (MTS assay); assay type: cell-based, human; conditions: compared to untreated control
Method: as §5, §6

NCl-N87 = test: cell viability, gastric cancer cells; assay type: cell-based; conditions: as treatment concentration of 3dc increased
Source text: (§7) For gastric cancer cells, KATOIII and NCl-N87, as the treatment concentration of 3dc, a NUPR1 isoform A inhibitor, increased, cell viability decreased, confirming the anticancer efficacy of 3dc (FIG. 35).

KATOIII = test: cell viability, gastric cancer cells; assay type: cell-based; conditions: as treatment concentration of 3dc increased
Source text: as §7

NUPR1 isoform A [7] = test: NUPR1 isoform A mRNA expression level in GBM-28 and GBM-37; assay type: cell-based, human; conditions: GBM-28 and GBM-37 cell lines, treated versus untreated
Method: as §5

A375P = test: cell viability, skin cancer cells; assay type: cell-based; conditions: as treatment concentration of 3dc increased
Source text: (§8) For skin cancer cells, A375P and SK-MEL1, as the treatment concentration of 3dc, a NUPR1 isoform A inhibitor, increased, cell viability decreased, confirming the anticancer efficacy of 3dc (FIG. 29).

SK-MEL1 = test: cell viability, skin cancer cells; assay type: cell-based; conditions: as treatment concentration of 3dc increased
Source text: as §8

GBM-37 [8] = test: cDNA microarray transcriptome analysis; assay type: cell-based, human
Method: In addition, GBM-37 was treated with 100 nM of 3dc, and transcriptome changes were confirmed through cDNA microarray analysis.

HCT116 [9] = test: cell viability, colon cancer cells; assay type: cell-based; conditions: as treatment concentration of 3dc increased
Source text: (§9) For colon cancer cells, HT29 and HCT116, as the treatment concentration of 3dc, a NUPR1 isoform A inhibitor, increased, cell viability decreased, confirming the anticancer efficacy of 3dc (FIG. 22).

HT29 [10] = test: cell viability, colon cancer cells; assay type: cell-based; conditions: as treatment concentration of 3dc increased
Source text: as §9

GBM-37 [11] = test: cholecystokinin (CCK) measurement after treatment; assay type: cell-based, human; conditions: GBM-37 compared with GBM-28
Method: as §5
In addition, after treating GBM-28 and GBM-37 with temozolomide and 3dc, respectively, cholecystokinin (CCK) results were measured.

MCF7 = test: cell viability, breast cancer cells; assay type: cell-based; conditions: as treatment concentration of 3dc increased
Source text: (§10) For breast cancer cells, BT-20 and MCF7, as the treatment concentration of 3dc, a NUPR1 isoform A inhibitor, increased, cell viability decreased, confirming the anticancer efficacy of 3dc (FIGS. 32, 33, and 34).

BT-20 = test: cell viability, breast cancer cells; assay type: cell-based; conditions: as treatment concentration of 3dc increased
Source text: as §10

HCT116 [12] = test: mouse model intravitreally injected with colon cancer cells, tumor size; assay type: in vivo; conditions: HCT116 in Balb/c nude mice, 1 mM 3dc, visually observed after 1, 2, 3 and 4 weeks
Method: (§11) In addition, colon cancer cells, HT29 and HCT116 was intravitreal injected into 6-week-old male Balb/c nude mice at 3×10^5 cells/2 μl according to a method disclosed in Lee et al. Experimental & Molecular Medicine (2019) 51:43, and then the tumor size of 1 mM 3dc treatment group (experimental group) and the untreated group (control group) was visually observed after 1 week, 2 weeks, 3 weeks and 4 weeks.

HT29 [13] = test: as above; assay type: in vivo; conditions: HT29 in Balb/c nude mice, 1 mM 3dc, visually observed after 1, 2, 3 and 4 weeks
Method: as §11

GBM-37 [14] = test: invasion and proliferation assay; assay type: cell-based, human; conditions: GBM-37 compared with GBM-28
Method: as §5

NCI-H1299 [15] = test: cell viability, lung cancer cells; assay type: cell-based; conditions: as treatment concentration of 3dc increased
Source text: (§12) For lung cancer cells, A549 and NCI-H1299, as the treatment concentration of 3dc, a NUPR1 isoform A inhibitor, increased, cell viability decreased, confirming the anticancer efficacy of 3dc (FIG. 26).

A549 [16] = test: cell viability, lung cancer cells; assay type: cell-based; conditions: as treatment concentration of 3dc increased
Source text: as §12

NUPR1 isoform A [17] = target: NUPR1 isoform A (Homo sapiens, UniProt O60356); test: calorimetric titration of 3dc and NUPR1 isoform A; conditions: read-out: binding affinity between the NUPR1 isoform A and 3dc
Method: Additionally, calorimetric titrations of 3dc and the NUPR1 isoform A were determined.

GBM-37 [18] = test: wound healing assay; assay type: cell-based, human; conditions: GBM-37 compared with GBM-28
Method: as §5

NCI-H1299 [19] = test: mouse model intravitreally injected with lung cancer cells, tumor size; assay type: in vivo; conditions: NCI-H1299 in Balb/c nude mice, 1 mM 3dc, visually observed after 1, 2, 3 and 4 weeks
Method: as §11, with “lung” for “colon”, “A549” for “HT29”, “NCI-H1299” for “HCT116”

A549 [20] = test: as above; assay type: in vivo; conditions: A549 in Balb/c nude mice, 1 mM 3dc, visually observed after 1, 2, 3 and 4 weeks
Method: as §11, with “lung” for “colon”, “A549” for “HT29”, “NCI-H1299” for “HCT116”

[21] = GBM-28 overexpressing (OE) NUPR1 isoform A, MTS assay, compared to OE control group
[22] = GBM-37, gene ontology and network analysis

Sequence of NUPR1 isoform A (Homo sapiens, UniProt O60356) (O60356 1-100 isoform O60356-2): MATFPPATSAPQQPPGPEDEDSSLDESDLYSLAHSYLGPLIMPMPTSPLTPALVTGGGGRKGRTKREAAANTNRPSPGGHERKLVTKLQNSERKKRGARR

basic molecular functions such as nucleic acid binding and RNA binding (GBM-37 [8]; [22]): significantly inhibited
Kd (NUPR1 isoform A [17]): 89 µM
Compound: FC(F)(F)c1ccc2c(c1)N(CCCCN1CCC(N3CCCC3)CC1)c1ccccc1S2 [3dc, 10-(4-(4-(pyrrolidin-1-yl)piperidin-1-yl)butyl)-2-(trifluoromethyl)-10H-phenothiazine]
cell viability compared to the untreated control group (GBM-37 [1]; GBM-37, 2000 μM temozolomide, 3dc at 50 nM, 100 nM and 200 nM): significantly reduced
cell viability compared to the untreated control group (GBM-37 [1]; GBM-37 pre-treated 24 hours with 50, 100, 200 nM 3dc, then 250-4000 μM temozolomide): significantly reduced
cell viability (SNU80): decreased
cell viability (SNU790): decreased
cell viability (Caov3): decreased
cell viability (SKOV3): decreased
cell viability (HepG2): decreased
cell viability (Hep3B): decreased
cell viability (DU145): decreased
cell viability (PC3): decreased
cell viability (GBM-28 [2]): decreased
cell viability (GBM-37 [3]): decreased
nuclear transfer of the NUPR1 isoform A (NUPR1 isoform A [4]): inhibited
cell proliferation (GBM-28 [5]; GBM-28, MTS assay, compared to untreated control group): inhibited
cell proliferation (GBM-28 [5]; GBM-28 overexpressing (OE) NUPR1 isoform A, 3dc treatment combined with siNUPR1a transfection, compared to OE control group): inhibited
cell proliferation (GBM-28 [5]; [21]): inhibited
cell proliferation (GBM-37 [6]; GBM-37, 3dc treatment combined with siNUPR1a transfection): inhibited
cell proliferation (GBM-37 [6]; GBM-37, MTS assay): inhibited
cell viability (NCl-N87): decreased
cell viability (KATOIII): decreased
mRNA expression level of NUPR1 isoform A (NUPR1 isoform A [7]): significantly decreased
cell viability (A375P): decreased
cell viability (SK-MEL1): decreased
genes related to essential cell phenomena such as DNA repair, cell migration, and cell cycle (GBM-37 [8]; GBM-37, 100 nM 3dc, cDNA microarray): down-regulated
genomic aberrations of coding genes: most chromosomal genes (GBM-37 [8]; GBM-37, based on the transcriptome analysis): affected or down-regulated
basic biological processes such as DNA packaging and protein-DNA complex assembly (GBM-37 [8]; [22]): significantly inhibited
basic cellular components such as DNA packaging complexes and nucleosomes (GBM-37 [8]; [22]): destroyed
cell viability (HCT116 [9]): decreased
cell viability (HT29 [10]): decreased
cholecystokinin (CCK) results (GBM-37 [11]): better effect
cell viability (MCF7): decreased
cell viability (BT-20): decreased
tumor size compared with control group (HCT116 [12]): smaller and more transparent
tumor size compared with control group (HT29 [13]): smaller and more transparent
invasion inhibitory effect (GBM-37 [14]): better
proliferation inhibitory effect (GBM-37 [14]): better
cell viability (NCI-H1299 [15]): decreased
cell viability (A549 [16]): decreased
inhibitory effect on cell migration (GBM-37 [18]): better inhibitory effect
tumor size compared with control group (NCI-H1299 [19]): smaller and more transparent
tumor size compared with control group (A549 [20]): smaller and more transparent

Compound: siNUPR1a: siRNAs of SEQ ID NOs: 5 and 6 directed against NUPR1 isoform A (chain 1 GCCUAUGCCCACUUCACCUUU; chain 2 AGGUGAAGUGGGCAUAGGCUU; listed as RNA, chemistry not given here)
cell proliferation (GBM-28 [5]; [21]): inhibited
cell proliferation (GBM-37 [6]; GBM-37, MTS assay): inhibited
